Results reported in EPA's ToxValDB 9.5 (doi:10.2903/j.efsa.2018.5229).
≈ marks a conversion by molar mass, not a printed value.

What was measured:
Anas platyrhynchos = conditions: acute; oral; unspecified; mortality
Apis mellifera = conditions: acute, mortality
Canidae = conditions: chronic; duration: 1 years; oral; Dog Other; body weight
Colinus virginianus = conditions: reproduction developmental
Daphnia magna = conditions: chronic/long-term; duration: 21 days; reproduction
Ictalurus punctatus = conditions: acute; duration: 96 hours; mortality
Oryctolagus sp. = conditions: reproduction developmental; mortality
Pimephales promelas = conditions: chronic/long-term; duration: 35 days
Rattus norvegicus = conditions: oral
Tagia sp. = conditions: chronic/long-term; reproduction
Chrysoperla externa = experiment: LR50; higher = less toxic; conditions: not reported; mortality
Typhlodromus pyri = experiment: LR50; higher = less toxic; conditions: not reported; mortality

CCOC(=O)C1CC(=O)C(=C(O)C2CC2)C(=O)C1 (centres undefined) [Trinexapac-ethyl]
LD50 (Anas platyrhynchos): > 2000 mg/kg-day
LD50 (Apis mellifera; dermal): > 100 µg/piece
LD50 (Apis mellifera; oral, unspecified): > 83 µg/piece
NOAEL (Canidae): 32 mg/kg-day
NOEL (Colinus virginianus): 17.6 mg/kg-day
NOEC (Daphnia magna): 2.4 mg/L
LC50 (Ictalurus punctatus): 35 µg/mL (≈ 139 µM)
NOAEL (Oryctolagus sp.): 60 mg/kg-day
NOEC (Pimephales promelas): 0.41 mg/L
LD50 (Rattus norvegicus; acute, mortality): 4210 mg/kg-day
NOAEL (Rattus norvegicus; subchronic, duration: 90 days, body weight): ≤ 34 mg/kg-day
NOEC (Tagia sp.): 81.9 mg/kg
LR50 (Chrysoperla externa): > 400 g/ha
LR50 (Typhlodromus pyri): > 15 g/ha
